Assays:
[1] = tested on: triglyceride biosynthesis; test: Measurement of triglyceride biosynthesis inhibitive activity in a rat liver cell; type: cell-based; conditions: Rattus norvegicus, 6 h, read-out: Triglyceride biosynthesis inhibitive activity inhibition in 1 μM of the specimen
Description: (§1) Measurement of Cholesterol and Triglyceride Biosynthesis Inhibitive Activities in a Rat Liver Cell
(§2) A liver cell was isolated from a male SD rat according to a usual method (collagenase perfusion method) and subjected to an experiment.
(§3) The isolated liver cells were planted in an amount of 500 μ1 every well on a Type collagen coated 24 well plate (cell density: 4×10^5 cell/ml). As the cell culture solution, a Williams'E medium (adjusted to pH 7.4) containing 10% FCS, 1 μM insulin, 1 μM dexamethasone, 100 units/ml penicillin and 10 μg/ml streptomycin was used. After the liver cells were incubated in a CO2 incubator for 2 hours, unstuck cells were removed and the liver cells were further incubated overnight.
(§4) After the culture medium was exchanged, the specimen diluted in a 10% DMSO-90% cell culture solution was added to each well in an amount of 5 μ1. DMSO (final concentration: 0.1%) was added to a control group. A [1-^14C]Acetic acid, sodium salt (5 μCi/well) was added to the media 10 minutes and 4 hours after the specimen was added for the measurement of cholesterol synthesis inhibitive action and for the measurement of triglyceride synthesis inhibitive action respectively, followed by culturing for further 2 hours.
(§5) After the cultivation was finished, the supernatant was removed and the cells were washed using PBS(−)(Phosphate buffered saline (Ca^2+, Mg^2+free) twice. Hexane/isopropyl alcohol (3:2, v/v) was added to the cells and the cells were then allowed to stand for 10 minutes to extract intracellular lipid. The extract was transferred to a glass tube and exsiccated under a nitrogen gas stream. Further, the exsiccated extract was washed with 25 mL of petroleum ether and then dissolved in petroleum ether containing the following components: 0.01% squalene, 0.3% free cholesterol, 0.3% cholesterol acetate, 0.1% triolein, 0.01% farnesol and 0.3% lanosterol.
(§6) The resulting solution was spotted on a TLC plate to perform an isolating operation. The spotted solution was developed for 10 minutes by using toluene/isopropyl ether (1:1, v/v) as the solvents and for further 15 minutes by using heptane in place of the above solvent after it was dried using air.
(§7) After the development was finished, the TLC plate was subjected to iodine color development. After each position of free cholesterol and triolein which were used as standards was confirmed, the image of the TLC plate was transferred to a BAS 2000 (Fuji Film) imaging plate by exposure performed for 16 hours. This transferred image was analyzed using a BAS 2000 IP Reader and an Imaging analyzer II to measure radiative activities contained in the free cholesterol and triglyceride fractions.
(§8) The cholesterol biosynthesis inhibitive activity was expressed by a concentration (IC50) at which 50% of the radiative activity of the control group was inhibited and the triceride biosynthesis inhibitive activity was expressed by an inhibition rate (%) to the control group.

[2] = target: T1, squalene synthesizing enzyme (Rattus norvegicus, UniProt Q02769); test: Measurement of squalene synthesizing enzyme inhibitive activity by using a rat liver microsome; type: biochemical; conditions: [3H]-farnesylpyrophosphoric acid
T1 construct: The liver was excised from a male Spraugue-Dawly rat; from tissue; host or cells: liver microsome fraction of male Sprague-Dawley rat (8 to 9 weeks)
T1 sequence (Q02769 1-416): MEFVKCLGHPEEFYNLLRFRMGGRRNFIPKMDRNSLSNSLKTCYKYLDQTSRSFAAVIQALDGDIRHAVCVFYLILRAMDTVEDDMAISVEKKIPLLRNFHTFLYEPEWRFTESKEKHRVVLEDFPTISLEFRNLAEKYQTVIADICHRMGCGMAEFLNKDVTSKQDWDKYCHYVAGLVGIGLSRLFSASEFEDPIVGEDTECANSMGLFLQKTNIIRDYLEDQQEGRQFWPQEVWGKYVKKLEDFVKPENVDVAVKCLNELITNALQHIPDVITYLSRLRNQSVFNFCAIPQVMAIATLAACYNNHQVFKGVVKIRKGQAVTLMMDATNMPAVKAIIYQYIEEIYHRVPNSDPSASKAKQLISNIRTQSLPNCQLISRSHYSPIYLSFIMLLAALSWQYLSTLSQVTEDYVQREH
Description: Measurement of Squalene Synthesizing Enzyme Inhibitive Activity by Using a Rat Liver Microsome
(I) The reaction was run on a scale of 500 μ1. 200 µl of a solution containing 125 mM tris-hydrochloric acid (pH: 7.3), 2.5 mM magnesium chloride, 5 mM potassium fluoride and 10 mM reduction type nicotinamidoadenine dinucleotide phosphoric acid, 100 µl of the specimen solution with a 5-fold concentration, 100 µl of distilled water and 50 µl of 0.4 to 1 mg/ml rat liver microsome prepared by the following method were mixed.
(II) The above mixture was pre-incubated at 37° C. for 10 minutes and thereafter, 50 µl of 100 μM [^3H]-farnesylpyrophosphoric acid (30 mCi/mmol, NEN) was added to the mixture to start a reaction. The reaction was continued at 37° C. for 10 minutes. 1 ml of ethanol was added to the resulting mixture to terminate the reaction and then 1 ml of distilled water and 3 ml of petroleum ether were added to the reaction solution, which was then shaken for 30 minutes. The water phase was separated from the oil phase, the water phase was frozen at −70° C. in dry ice/methanol and the radiative activity of the organic phase was measured using a liquid scintillator. Or the organic phase was evaporated to dryness using nitrogen gas and the residue was dissolved as a marker in 25 µl of chloroform containing squalene, farnesol and cholesterol. This sample was spotted on a TCL plate (Merck) and developed using heptane for 15 to 20 minutes. A band of squalene was cut from the plate to measure the radiative activity by using a liquid scintillation counter. The data was expressed by a concentration (IC50) at which 50% of the radiative activity of a control group was inhibited.
Method of the Preparation of a Rat Liver Microsome
The following operations were all carried out on ice and the centrifugation was performed at 4° C. The liver was excised from a male Spraugue-Dawly rat (hereinafter referred to as SD rat) (8 to 9 weeks age) and perfused with 1.15% potassium chloride to remove the blood. Then, the liver was minced using a forceps and the minced liver was homogenized using a Teflon homogenizer. The resulting sample was centrifuged at 16000×g twice for 15 minutes. The supernatant was further centrifuged at 105000×g for 60 minutes. The obtained deposit was determined as a microsome fraction, which was then suspended in a 25 mM tris-hydrochloric acid solution. The concentration of protein was measured quantitatively by a Bradford method and the concentration of protein was adjusted to 20 mg/ml by using the same solution. The resulting solution was stored at […].

cholesterol biosynthesis [3] = test: Measurement of cholesterol biosynthesis inhibitive activity in a rat; type: in vivo; conditions: 2 h; male SD rat, oral, dose 1 mg/kg, inhibition rate to control group
Description: Measurement of Cholesterol Biosynthesis Inhibitive Activity in a Rat
(I) An SPF grade male SD rat (4 weeks age, SLC) was bred for more than one week in a day-night-reversal room and subjected to an experiment made in the daytime. The compound dissolved in a 2% Tween 80 solution was administered (5 ml/kg) to the rat using an oral sonde. After one hour, a [1-^14C]Acetic acid, sodium salt (1.67-2.22 GBq/mmol, 37 MBq/ml, NEN) prepared by diluting to 1.85 MBq/ml by using physiological saline was intraabdominally administered (300 μ1/animal). After one hour, the rat was anesthetized by diethyl ether to carry out exsanguination from the aorta abdominalis. The collected blood was centrifuged at 3000 rpm for 10 minutes to prepare blood plasma.
(II) 1 ml of 4N KOH and 1 ml of ethanol were added to 2 ml of the blood plasma, which was then incubated at 65° C. for one hour and there after, 3 ml of petroleum ether was added. The plasma was shaken for 30 minutes. After the water phase was separated from the organic phase by centrifugation, it was frozen at −80° C. and the radiative activity of the organic phase was measured using a liquid scintillation counter. Or the organic phase was evaporated to dryness using nitrogen gas and the residue was dissolved as a marker in 25 µl of chloroform containing squalene, farnesol and cholesterol. This sample was applied to a TCL plate (Merck) and developed using toluene and isopropyl ether (1:1) for 15 to 20 minutes. A band of cholesterol was cut from the plate to measure the radiative activity by using a liquid scintillation counter. The cholesterol biosynthesis inhibition activity was expressed by an inhibition rate (%) to a control group.

cholesterol biosynthesis [4] = test: Measurement of cholesterol biosynthesis inhibitive activity in a rat liver cell; type: cell-based; conditions: 10 min; isolated rat liver cells, [1-14C]acetic acid added 10 minutes after the specimen
Description: as §1, §2, §3, §4, §5, §6, §7, §8

Compound `O[C@]1(C#Cc2ccc(OCC3OCCO3)nc2Cc2ccccc2)CN2CCC1CC2` [Example 153, (3R)-3-[2-Benzyl-6-(1,3-dioxolan-2-yl)methyloxy-3-pyridyl]ethynyl-3-quinuclidinol] has an inhibition at 1 µM [1] of 85%, an IC50 [2] of 11 nM and an inhibition in vivo at 1 mg/kg (cholesterol biosynthesis [3]) of 82%. The IC50 (cholesterol biosynthesis [4]) was 55 nM.
